In US20060069132A1, “Azolecarboxamide herbicides” (priority 2004, published 2006):
Like-named read-outs stand apart in the source and are kept apart here.

Assays:
woolly cupgrass = experiment: Test C pre-/postemergence herbicide test; type: in vivo, Eriochloa villosa
Description: (§1) Seeds of plant species selected from bermudagrass (Cynodon dactylon (L.) Pers.), Surinam grass (Urochloa decumbens (Staph) R. D. Webster, previously named Brachiaria decumbens Stapf), cocklebur (Xanthium strumarium L.), corn (Zea mays L.), large crabgrass (Digitaria sanguinalis (L.) Scop.), woolly cupgrass (Eriochloa villosa (Thunb.) Kunth), giant foxtail (Setaria faberi Herrm.), goosegrass (Eleusine indica (L.) Gaertn.), johnsongrass (Sorghum halepense (L.) Pers.), kochia (Kochia scoparia (L.) Schrad.), lambsquarters (Chenopodium album L.), morningglory (Ipomoea coccinea L.), eastern black nightshade (Solanum ptycanthum Dunal), yellow nutsedge (Cyperus esculentus L.), pigweed (Amaranthus retroflexus L.), common ragweed (Ambrosia elatior L.), soybean (Glycine max (L.) Merr.), common (oilseed) sunflower (Helianthus annuus L.) and velvetleaf (Abutilon theophrasti Medik.) were planted and treated preemergence with test chemicals formulated in a non-phytotoxic solvent mixture which included a surfactant.
(§2) At the same time, plants selected from these crop and weed species and also winter barley (Hordeum vulgare L.), blackgrass (Alopecurus myosuroides Huds.), canarygrass (Phalaris minor Retz.), chickweed (Stellaria media (L.) Vill.), downy bromegrass (Bromus tectorum L.), green foxtail (Setaria viridis (L.) Beauv.), Italian ryegrass (Lolium multiflorum Lam.), wheat (Triticum aestivum L.), wild oat (Avenafatua L.) and windgrass (Apera spica-venti (L.) Beauv.) were treated with postemergence applications of some of the test chemicals formulated in the same manner. Plants ranged in height from 2 to 18 cm (1- to 4-leaf stage) for postemergence treatments. Plant species in the flooded paddy test consisted of rice (Oryza sativa), smallflower umbrella sedge (Cyperus difformis L.), ducksalad (Heteranthera limosa (Sw.) Willd.) and barnyardgrass (Echinochloa crus-galli (L.) Beauv.) grown to the 2-leaf stage for testing. Treated plants and controls were maintained in a greenhouse for 12 to 14 days, after which time all species were compared to controls and visually evaluated. Plant response ratings, summarized in Table C, are based on a scale of 0 to 100 where 0 is no effect and 100 is complete control. A dash (-) response means no test result.

large crabgrass = experiment: Test C pre-/postemergence herbicide test; type: in vivo, Digitaria sanguinalis
Description: as §1, §2

giant foxtail = experiment: Test A pre-/postemergence herbicide test; type: in vivo, Setaria faberi; settings: for pest or weed control at 500 g/ha / pest or weed control at 2000 g/ha: Setaria faberi, 240 h
Method in brief: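 Visual injury scores on a 0–100 scale (100 = complete control) taken about ten days post-treatment in greenhouse against untreated controls; dash means no result. Treatments: preemergence soil spray and postemergence spray to runoff on one- to two-leaf plants 2 to 10 cm tall, surfactant-containing formulation.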

yellow nutsedge = experiment: Test C pre-/postemergence herbicide test; type: in vivo, Cyperus esculentus
Description: as §1, §2

barnyardgrass [1] = experiment: Test B flooded paddy test; type: in vivo, Echinochloa crus-galli; settings: 1000 g ai/ha, scale 0 to 100 (0 no effect, 100 complete control)
Method in brief: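 Visual control ratings, 0–100 versus untreated controls, taken after 13 to 15 days in the greenhouse. Blackgrass received a postemergence spray at the 1- to 4-leaf stage (2–18 cm); ducksalad, umbrella sedge and barnyardgrass were flooded-paddy treated at 2 leaves.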

wheat = experiment: Test B postemergence herbicide test; type: in vivo, Triticum aestivum; set-up: key to Wheat plant response rating: 0 = no effect, 100 = complete control
Method in brief: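 Treated at 2-leaf (paddy) or 1–4-leaf, 2–18 cm (postemergence); greenhouse 13–15 d; visual score vs control, 0 none to 100 complete control; dash = not tested.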

barnyardgrass [2] = experiment: Test C flooded paddy test; type: in vivo, Echinochloa crus-galli; settings: for Plant response rating, Barnyardgrass: 500 g ai/ha, visual rating after 12 to 14 days
Method in brief: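 After a postemergence application at 1 to 4 leaves (plants 2–18 cm high), or at 2 leaves for barnyardgrass in flooded paddy, plants stayed in the greenhouse for 12 to 14 days. Damage was then judged visually relative to control plants, with 100 indicating complete control.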

rice = experiment: Test C flooded paddy test; type: in vivo, Oryza sativa; settings: for Plant response rating, Rice: 500 g ai/ha, visual rating after 12 to 14 days
Method in brief: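 Injury scored visually against controls on a 0 (no effect) to 100 (complete control) scale, 12 to 14 days after treatment in greenhouse. Flooded paddy plants treated at 2-leaf stage; postemergence plants at 1- to 4-leaf stage, 2 to 18 cm tall.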

[3] = Postemergence, 500 g ai/ha, scale 0 to 100
[4] = 62 g ai/ha, scale 0 to 100 (0 no effect, 100 complete control)
[5] = 125 g ai/ha, scale 0 to 100 (0 no effect, 100 complete control)
[6] = 250 g ai/ha, scale of 0 to 100, 0 is no effect, 100 is complete control
[7] = scale 0 to 100 (0 no effect, 100 complete control)
[8] = Postemergence, 500 g ai/ha, 0 to 100 scale, 0 no effect, 100 complete control
[9] = Postemergence, 2000 g ai/ha, 0 to 100 scale, 0 no effect, 100 complete control
[10] = Preemergence, 2000 g ai/ha, visual rating, 0 to 100 scale (0 no effect, 100 complete control)
[11] = preemergence, 500 g ai/ha, visual injury, 0 to 100 scale (0 no effect, 100 complete control)
[12] = postemergence, 125 g ai/ha, visual rating, scale 0 (no effect) to 100 (complete control)
[13] = postemergence, 500 g ai/ha, scale 0 to 100, 0 is no effect, 100 is complete control
[14] = 125 g ai/ha, visual rating, scale 0 (no effect) to 100 (complete control), postemergence

SMILES	Barnyardgrass plant response rating (barnyardgrass [2]; [4])	Barnyardgrass plant response rating (barnyardgrass [2]; [5])	Barnyardgrass plant response rating (barnyardgrass [2]; [6])	Plant response rating, Barnyardgrass (barnyardgrass [2]; [7])	Foxtail, Giant plant response rating (giant foxtail; [8])	Plant response rating, Foxtail, Giant (giant foxtail; [9])	Foxtail, Giant plant response rating (giant foxtail; [10])	Foxtail, Giant plant response rating (giant foxtail; [11])	Rice plant response rating (rice; 62 g ai/ha, scale 0 to 100)	Rice plant response rating (rice; [5])	Rice plant response rating (rice; [6])	Plant response rating, Rice (rice; [7])	Barnyardgrass plant response rating (barnyardgrass [1])	Wheat plant response rating (wheat; [12])	Wheat plant response rating (wheat; [13])	Wheat plant response rating (wheat; [14])	other results
CCn1nc(C(C)(C)C)cc1C(=O)Nc1cccc(C(=O)OCCF)c1 [Compound 82, 2-fluoroethyl 3-[[[3-(1,1-dimethylethyl)-1-ethyl-1H-pyrazol-5-yl]-carbonyl]amino]benzoate]	–	–	–	–	–	–	–	–	–	–	–	–	–	–	–	–	pest or weed control at 250 g/ha (woolly cupgrass; Eriochloa villosa, post-emergence, 312 h, Postemergence, 250 g ai/ha, scale 0 to 100, 0 no effect, 100 complete control, read-out: Plant response rating, Cupgrass, Woolly): 80%; pest or weed control at 125 g/ha (woolly cupgrass; Eriochloa villosa, post-emergence, 312 h, postemergence, 125 g ai/ha, scale 0 to 100, read-out: Plant response rating, Cupgrass, Woolly): 60%; Cupgrass, Woolly plant response rating (woolly cupgrass; [3]): 80; pest or weed control at 250 g/ha (large crabgrass; Digitaria sanguinalis, post-emergence, 312 h, Postemergence, 250 g ai/ha, scale 0 to 100, 0 no effect, 100 complete control, read-out: Plant response rating, Crabgrass, Large): 0%; pest or weed control at 125 g/ha (large crabgrass; Digitaria sanguinalis, post-emergence, 312 h, postemergence, 125 g ai/ha, scale 0 to 100, read-out: Plant response rating, Crabgrass, Large): 0%; pest or weed control at 62 g/ha (large crabgrass; Digitaria sanguinalis, post-emergence, 312 h, postemergence, 62 g ai/ha, scale 0 to 100, read-out: Plant response rating, Crabgrass, Large): 0%; Crabgrass, Large plant response rating (large crabgrass; [3]): 60; pest or weed control at 500 g/ha (giant foxtail; post-emergence, Postemergence, 500 g ai/ha, 0 to 100 scale, 0 no effect, 100 complete control, read-out: Plant response rating, Foxtail, Giant): 20%; pest or weed control at 2000 g/ha (giant foxtail; post-emergence, Postemergence, 2000 g ai/ha, 0 to 100 scale, 0 no effect, 100 complete control, read-out: Plant response rating, Foxtail, Giant): 20%; pest or weed control at 500 g/ha (giant foxtail; pre-emergence, Preemergence, 500 g ai/ha, visual rating, 0 to 100 scale (0 no effect, 100 complete control), read-out: Foxtail, Giant plant response rating): 0%; pest or weed control at 2000 g/ha (giant foxtail; pre-emergence, Preemergence, 2000 g ai/ha, 0 to 100 scale, 0 no effect, 100 complete control, read-out: Foxtail, Giant plant response rating): 0%; pest or weed control at 250 g/ha (yellow nutsedge; Cyperus, post-emergence, Postemergence, 250 g ai/ha, scale 0 to 100, 0 no effect, 100 complete control, read-out: Plant response rating, Nutsedge, Yellow): 5%; pest or weed control at 125 g/ha (yellow nutsedge; Cyperus, post-emergence, postemergence, 125 g ai/ha, scale 0 to 100, read-out: Plant response rating, Nutsedge, Yellow): 5%; pest or weed control at 62 g/ha (yellow nutsedge; Cyperus, post-emergence, postemergence, 62 g ai/ha, scale 0 to 100, read-out: Plant response rating, Nutsedge, Yellow): 0%; Nutsedge, Yellow plant response rating (yellow nutsedge; [3]): 5; pest or weed control at 1000 g/ha (barnyardgrass [1]; Echinochloa crus-galli, 336 h, visual rating, 13 to 15 days, read-out: Barnyardgrass plant response rating): 30%; Plant response rating, Wheat (wheat; Postemergence, 500 g ai/ha, visual rating after 13 to 15 days, scale 0 (no effect) to 100 (complete control)): 20; plant injury at 125 g/ha (wheat; Triticum aestivum, post-emergence, 336 h, postemergence, 125 g ai/ha, visual rating, scale 0 (no effect) to 100 (complete control), read-out: Wheat plant response rating): 20%
CCn1nc(C(C)(C)C)cc1C(=O)Nc1nc(C(=O)N2CC=CC2)ccc1F [Compound 281]	0	20	30	65	0	25	75	60	0	0	15	50	70	30	30	–	–
C#CCNC(=O)c1cc(NC(=O)c2cc(C(C)(C)C)nn2CC)ccn1 [Compound 283]	0	0	0	10	10	25	50	10	0	0	0	0	20	20	20	–	–
CCn1nc(C(C)(C)C)cc1C(=O)Nc1cncc(C(=O)N2CC=CC2)n1 [Compound 290]	0	0	25	40	15	70	90	50	0	0	15	45	70	–	30	20	–
C#CCNC(=O)c1cccc(NC(=O)c2sc(C(C)(C)C)nc2CC)c1 [Compound 319]	0	25	50	65	0	40	80	55	0	35	35	70	10	–	30	10	–
CCN(C(C)=O)C(=O)c1ccc(F)c(NC(=O)c2cc(C(C)(C)C)nn2CC)c1 [Compound 413]	0	25	70	80	10	35	90	65	35	45	55	70	60	–	–	–	Wheat plant response rating (wheat; 500 g ai/ha, scale 0 to 100, 0 no effect, 100 complete control, preemergence): 80; Wheat plant response rating (wheat; Postemergence, 500 g ai/ha, scale 0 (no effect) to 100 (complete control)): 10; Wheat plant response rating (wheat; postemergence, 125 g ai/ha, scale 0 to 100): 0
